The values below come from publication PMC2646182 (Journal of the American Chemical Society, 2009).

As a reminder, the IC50 is the point on the concentration scale where inhibition reaches its midpoint.

Entries after “also recorded” stand apart in the source; their conditions may differ. Where two headings read alike, the source gives them in different places.

In series [1] the test system is L1210. The series is described as follows: In vitro cytotoxic activity, L1210. The note with it: for IC50: L1210 in vitro cytotoxic activity. The format is cell-based.
The nature of series [2]: Solvolysis at pH 7. It counts as physicochemical.
Series [3] can be described thus: Acid-catalyzed solvolysis at pH 3 monitored by UV. The format is physicochemical. The note with it: for solvolysis half-life t1/2 / solvolysis rate constant k: pH 3, 50% MeOH–buffer.
Series [4] deals with L1210. The note with it: read-out: L1210 IC50; L1210, introduction; cited from earlier work.
Series [5] concerns w794 DNA. The series is described as follows: DNA alkylation, thermally-induced strand cleavage of w794 DNA. The format is biochemical. The note with it: 23 °C.
Series [6] deals with w836 DNA. The series is described as follows: DNA alkylation, thermally-induced strand cleavage of w836 DNA. The format is biochemical. The note with it: after 24 h.
The conditions of series [7]: pH 3; cited from earlier work.
Series [8] relates to w794 and w836 duplex DNA. The experiment in a line: DNA alkylation of the simple alkylation subunits. It counts as biochemical. The note with it: for DNA alkylation selectivity (sites): both enantiomers.

Turning to `COC(=O)c1cc2c([nH]1)[C@@]13C[C@@H]1CN(C(=O)OC(C)(C)C)C3=CC2=O` [(−)-7, N-Boc-iso-DSA], in series [1], the 50% inhibitory concentration (IC50) came out at 330 nM.
On to “O-benzyl-iso-duocarmycin SA [Compound 34]”, for which, in series [2] (pH 7, 50% MeOH–H2O), the “solvolysis half-life t1/2” value was determined as 0.20 h and the “solvolysis rate constant k” value came to 0.000977 s⁻¹. In series [3], the “solvolysis half-life t1/2” value was 0.19 h and the “solvolysis rate constant k” value was found to be 0.001 s⁻¹. In series [3] (pH 3 solvolysis), the “fold more reactive than N-Boc-iso-DSA (7)” value stood at 470 fold.
“yatakemycin [Compound 3, reference compound]”: the IC50 was 0.003 to 0.006 nM in series [4] and 0.006 nM in series [1].
O-benzyl-iso-duocarmycin SA [(−)-34]: the “DNA alkylation efficiency relative to duocarmycin SA (1)” value in series [5] (w794, 22 h, 1 × 10^−5 M) is given as “nearly equivalent to that of 1”. Further, in series [1] (L1210), the “fold less active than duocarmycin SA” value amounted to 600 fold and the “fold less active than iso-duocarmycin SA” value is given as 120 fold. In series [1], half-maximal inhibition (IC50) required 6 nM. In series [3] (pH 3 solvolysis), the “fold more reactive than N-Boc-iso-DSA (7)” value was 470 fold.
As to `COC(=O)c1cc2c([nH]1)[C@@]13C[C@@H]1CN(C(=O)c1cc4cc(OC)c(OC)c(OC)c4[nH]1)C3=CC2=O` [(−)-5, iso-duocarmycin SA], in series [1], 0.55 nM corresponded to half-maximal inhibition (IC50).
Same read-out and setting: the figure for O-benzyl-iso-duocarmycin SA [(+)-34] is 7 nM; for `COC(=O)c1cc2c([nH]1)C(=O)C=C1N(C(=O)OC(C)(C)C)CC3CC123` (single isomer, unassigned; (+)) [(+)-8, N-Boc-DSA, reference compound] it is 6 nM.
For iso-yatakemycin [(−)-6], the “fold less potent than the duocarmycin SA / yatakemycin series counterpart” value in series [1] (L1210) is recorded as “ca. 5 fold”. In series [1], the concentration for half-maximal inhibition (IC50) amounted to 0.03 nM. The “fold less DNA alkylation than the yatakemycin enantiomers” value in series [6] was 2–5 fold.
In the case of `COC(=O)c1cc2c([nH]1)C(=O)C=C1N(C(=O)OC(C)(C)C)CC3CC123` (stereo not shown) [Compound 8, N-Boc-DSA, reference compound], in series [7], the “solvolysis half-life t1/2” value was 177 h. For the same compound, in series [8], the “times less efficient DNA alkylation than the full length agents” value is 10^3–10^4 times; the “DNA alkylation selectivity (sites)” value is 5′-AA and 5′-TA. Moreover, the “solvolysis at pH 7” value in series [2] is given as “stable”.
For `COC(=O)c1cc2c([nH]1)[C@@]13C[C@@H]1CN(C(=O)OC(C)(C)C)C3=CC2=O` [Compound 7, N-Boc-iso-DSA], in series [8], the “times less efficient DNA alkylation than the full length agents” value was 10^3–10^4 times; the “DNA alkylation selectivity (sites)” value is 5′-AA and 5′-TA. In addition, in series [2], the “solvolysis at pH 7” value is listed as “no measurable solvolysis; also recorded: stable”. For the same compound, in series [1] (L1210), the “fold difference in potency, natural vs unnatural enantiomer” value worked out at 10 fold and the “fold less potent than the duocarmycin SA / yatakemycin series counterpart” value worked out at 5 fold. In series [3], the “solvolysis half-life t1/2” value is 89 h and the “solvolysis rate constant k” value came out at 2.2e-06 s⁻¹. Besides, the “fold more reactive than N-Boc-DSA (8)” value in series [3] (pH 3 solvolysis) is 2 fold.
For the compound `COC(=O)c1cc2c([nH]1)C(=O)C=C1N(C(=O)c3cc4cc(OC)c(OC)c(OC)c4[nH]3)CC3CC123` (single isomer, unassigned; (-)) [(−)-1, duocarmycin SA, reference compound], half-maximal inhibition in series [1] (IC50) was put at 0.1 nM.
With `COC(=O)c1cc2c([nH]1)[C@@]13C[C@@H]1CN(C(=O)OC(C)(C)C)C3=CC2=O` [(+)-7, N-Boc-iso-DSA], the 50% inhibitory concentration (IC50) in series [1] is 33 nM.
On the same count and under the same terms, the figure for `COC(=O)c1cc2c([nH]1)[C@@]13C[C@@H]1CN(C(=O)c1cc4cc(OC)c(OC)c(OC)c4[nH]1)C3=CC2=O` [(+)-5, iso-duocarmycin SA] is 0.05 nM.
Turning to iso-yatakemycin [(+)-6], in series [1], half-maximal inhibition (IC50) required 0.015 nM. Besides, the “fold less DNA alkylation than the yatakemycin enantiomers” value in series [6] is on record as 2–5 fold.
As for `COC(=O)c1cc2c([nH]1)C(=O)C=C1N(C(=O)c3cc4cc(OC)c(OC)c(OC)c4[nH]3)CC3CC123` (single isomer, unassigned; (+)) [(+)-1, duocarmycin SA, reference compound], the IC50 in series [1] stood at 0.01 nM.
Still for that read-out and setting: the figure for `COC(=O)c1cc2c([nH]1)C(=O)C=C1N(C(=O)OC(C)(C)C)CC3CC123` (single isomer, unassigned; (-)) [(−)-8, N-Boc-DSA, reference compound] is 60 nM.
Consider `COC(=O)c1cc2c([nH]1)C(=O)C=C1N(C(=O)c3cc4cc(OC)c(OC)c(OC)c4[nH]3)CC3CC123` (stereo not shown) [Compound 1, Duocarmycin SA], for which the 50% inhibitory concentration (IC50) in series [4] is 0.01 nM.
Turning to `COC(=O)c1cc2c([nH]1)[C@@]13C[C@@H]1CN(C(=O)c1cc4cc(OC)c(OC)c(OC)c4[nH]1)C3=CC2=O` [Compound 5, iso-duocarmycin SA], the “DNA alkylation site selectivity vs duocarmycin SA counterpart” value in series [5] (w794, 48 h) is “alkylated the same site as its duocarmycin SA counterpart”. Besides, in series [1] (L1210), the “fold difference in potency, natural vs unnatural enantiomer” value is 10 fold and the “fold less potent than the duocarmycin SA / yatakemycin series counterpart” value is reported as 5 fold. The same compound returned a concentration for half-maximal inhibition (IC50) in series [1] of 0.05 nM.
